Data: ChEMBL document CHEMBL1201862, “PubChem BioAssay data set” (2004)
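How tested: cells in 96-well plates exposed to compound for 48 hours at five concentrations. The concentration for 50% growth inhibition is given as GI50.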 Calls of active or inactive are those of the source. No stated cut-off is given here; in the data, active = GI50 up to about 1.1 µM and inactive = higher.

How the values were obtained:
Assay in all cases: NCI-60 cell line screen, 48 h
NCI-H522 = tested on: NCI-H522
M19-MEL = tested on: M19-MEL
NCI-H460 = tested on: NCI-H460
UACC-257 = tested on: UACC-257
SNB-75 = tested on: SNB-75
NCI-H23 = tested on: NCI-H23
SK-MEL-5 = tested on: SK-MEL-5
DMS-273 = tested on: DMS-273
A549 = tested on: A549
OVCAR-4 = tested on: OVCAR-4
ACHN = tested on: ACHN
786-0 = tested on: 786-0
COLO 205 = tested on: COLO 205
HL-60 = tested on: HL-60
RPMI-8226 = tested on: RPMI-8226
CCRF-CEM = tested on: CCRF-CEM
Malme-3M = tested on: Malme-3M

Measured: GI50

O=C1c2ccccc2-c2cccc3ccc(Cc4ccc5ccccc5c4)c1c23
inactive: NCI-H522 15.6 µM | M19-MEL > 100 µM | NCI-H460 > 100 µM | UACC-257 > 100 µM | SNB-75 26.4 µM | NCI-H23 > 100 µM | SK-MEL-5 > 100 µM | DMS-273 88.3 µM | A549 > 100 µM | OVCAR-4 > 100 µM | ACHN > 100 µM | 786-0 76.6 µM | COLO 205 > 100 µM | HL-60 > 100 µM | RPMI-8226 > 100 µM | CCRF-CEM > 100 µM | Malme-3M > 100 µM

COc1cc2c3cc1Oc1c(O)c(OC)cc4c1C(Cc1ccc(O)c(c1)Oc1ccc(cc1)CC3N(C)CC2)N(C)CC4 (stereo not drawn)
inactive: NCI-H522 15.1 µM | M19-MEL 21.7 µM | NCI-H460 15.1 µM | UACC-257 18.6 µM | SNB-75 15 µM | NCI-H23 23.7 µM | SK-MEL-5 18.5 µM | DMS-273 13 µM | A549 17.6 µM | OVCAR-4 13.8 µM | ACHN 19 µM | 786-0 13.2 µM | COLO 205 19.5 µM | HL-60 21.5 µM | RPMI-8226 15.1 µM | CCRF-CEM 8.57 µM | Malme-3M 18.2 µM

CN1C=C(C(N)=O)Cc2ccsc21
inactive: NCI-H522 > 100 µM | M19-MEL > 100 µM | NCI-H460 > 100 µM | UACC-257 > 100 µM | SNB-75 > 100 µM | NCI-H23 > 100 µM | SK-MEL-5 > 100 µM | DMS-273 > 100 µM | A549 > 100 µM | OVCAR-4 > 100 µM | ACHN > 100 µM | 786-0 > 100 µM | COLO 205 > 100 µM | HL-60 > 100 µM | RPMI-8226 > 100 µM | CCRF-CEM > 100 µM | Malme-3M > 100 µM

CN(C)c1ccc(C=C2C(=O)OC(C)(C)OC2=O)cc1Br
inactive: NCI-H522 > 100 µM | M19-MEL > 100 µM | NCI-H460 > 100 µM | UACC-257 > 100 µM | SNB-75 29.5 µM | NCI-H23 > 100 µM | SK-MEL-5 > 100 µM | DMS-273 > 100 µM | A549 > 100 µM | OVCAR-4 > 100 µM | ACHN > 100 µM | 786-0 > 100 µM | COLO 205 > 100 µM | HL-60 41.1 µM | RPMI-8226 > 100 µM | CCRF-CEM > 100 µM | Malme-3M > 100 µM

N/N=c1\c2ccccc2c2ccc3c4ccccc4/c(=N\N)c3c12
inactive: NCI-H522 > 100 µM | M19-MEL > 100 µM | NCI-H460 > 100 µM | UACC-257 > 100 µM | SNB-75 37.3 µM | NCI-H23 > 100 µM | SK-MEL-5 > 100 µM | DMS-273 > 100 µM | A549 > 100 µM | OVCAR-4 > 100 µM | ACHN > 100 µM | 786-0 > 100 µM | COLO 205 > 100 µM | HL-60 > 100 µM | RPMI-8226 > 100 µM | CCRF-CEM > 100 µM | Malme-3M > 100 µM

CCC1N2CCCCC2[C@@H]2c3[nH]c4ccccc4c3CCN12 (stereo partly drawn)
inactive: NCI-H522 > 100 µM | M19-MEL > 100 µM | NCI-H460 > 100 µM | UACC-257 > 100 µM | SNB-75 77.8 µM | NCI-H23 > 100 µM | SK-MEL-5 > 100 µM | DMS-273 > 100 µM | A549 > 100 µM | OVCAR-4 > 100 µM | ACHN > 100 µM | 786-0 > 100 µM | COLO 205 > 100 µM | HL-60 > 100 µM | RPMI-8226 > 100 µM | CCRF-CEM > 100 µM | Malme-3M > 100 µM

COC(=O)CCC(=O)CC(=O)C1=NS(=O)(=O)c2nc(S(N)(=O)=O)c(Cl)cc2N1
inactive: NCI-H522 64.3 µM | M19-MEL > 100 µM | NCI-H460 > 100 µM | UACC-257 > 100 µM | SNB-75 > 100 µM | NCI-H23 > 100 µM | SK-MEL-5 > 100 µM | DMS-273 72.3 µM | A549 > 100 µM | OVCAR-4 > 100 µM | ACHN > 100 µM | 786-0 > 10 µM | COLO 205 > 100 µM | HL-60 > 100 µM | RPMI-8226 > 100 µM | CCRF-CEM 45 µM | Malme-3M > 100 µM

CC1(c2ccc(F)cc2)C(C#N)C(=O)NC(=O)C1C#N (stereo not drawn)
inactive: NCI-H522 > 100 µM | M19-MEL > 100 µM | NCI-H460 > 100 µM | UACC-257 > 100 µM | SNB-75 32.3 µM | NCI-H23 > 100 µM | SK-MEL-5 > 100 µM | DMS-273 > 100 µM | A549 > 100 µM | OVCAR-4 > 100 µM | ACHN > 100 µM | 786-0 > 100 µM | COLO 205 > 100 µM | HL-60 > 100 µM | RPMI-8226 > 100 µM | CCRF-CEM > 100 µM | Malme-3M > 100 µM

c1ccc(N2CCN(CCCN3CCc4c([nH]c5ccccc45)C3c3cccnc3)CC2)cc1 (stereo not drawn)
inactive: NCI-H522 86.9 µM | M19-MEL > 92 µM | NCI-H460 48.3 µM | UACC-257 24.6 µM | SNB-75 > 100 µM | NCI-H23 > 100 µM | SK-MEL-5 > 70.3 µM | DMS-273 > 47 µM | A549 > 100 µM | OVCAR-4 98.9 µM | ACHN > 92.9 µM | 786-0 33.9 µM | COLO 205 20.8 µM | HL-60 20 µM | RPMI-8226 76.2 µM | CCRF-CEM 88.3 µM | Malme-3M > 46.9 µM
